This note sets out measurements from article PMC6146777, “Biocompatible glyconanomaterials based on HPMA-copolymer for specific targeting of galectin-3” (Journal of Nanobiotechnology, 2018).

This assay addresses T1, Recombinant human His6-tagged galectin-3 (Gal-3) (Homo sapiens, UniProt P17931).
T1 construct: gene LGALS3; His6-tagged Gal-3 (tag kept), expressed in E. coli Rosetta 2 (DE3) pLysS, 28,023 Da calculated, monomer in solution
In words: competitive ELISA, Gal-3 binding to immobilized asialofetuin. The conditions noted are these: 6.5 µM Gal-3, EPBS buffer pH 7.5, 2 mM EDTA, 2 h; competitive with asialofetuin.

T1 sequence (P17931 2-250): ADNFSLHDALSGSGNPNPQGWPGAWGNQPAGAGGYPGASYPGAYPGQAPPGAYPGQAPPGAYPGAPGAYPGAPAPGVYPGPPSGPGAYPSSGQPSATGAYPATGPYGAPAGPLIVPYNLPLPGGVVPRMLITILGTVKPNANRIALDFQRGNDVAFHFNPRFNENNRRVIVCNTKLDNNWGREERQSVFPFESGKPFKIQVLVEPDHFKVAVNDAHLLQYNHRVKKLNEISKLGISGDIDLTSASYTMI

What is called IC50 is the concentration needed to halve the response being measured. Consider `CC(=O)N[C@H]1C(O)O[C@H](CO)[C@@H](O[C@@H]2O[C@H](CO)[C@H](O)[C@H](O)[C@H]2O)[C@@H]1O` (some centres unmarked) [LacNAc], for which the IC50 worked out at 53 ± 16 µM.

Consider `CC(=O)N[C@H]1[C@H](O[C@H]2[C@H](O)[C@@H](NC(C)=O)C(O)O[C@@H]2CO)O[C@H](CO)[C@H](O)[C@@H]1O` (stereo partly drawn) [compound 5, 2-acetamido-2-deoxy-β-D-galactopyranosyl-(1 → 4)-2-acetamido-2-deoxy-D-glucopyranose], for which the IC50 came out at 64 ± 20 µM.
